From publication PMC11868595, “Safety, pharmacokinetics and efficacy of HA121-28 in patients with advanced solid tumors and RET fusion-positive non-small-cell lung cancer: a multicenter, open-label, single-arm phase 1/2 trial” (Signal Transduction and Targeted Therapy, 2025)

Test system: patients with advanced solid tumors
Experiment: Phase 1 trial: adverse events (CTCAE), DLT and MTD
Format: in vivo, human
Protocol: The phase 1 trial was a two-part, multicenter, open-label, nonrandomized study to evaluate the safety and preliminary efficacy of HA121-28.
Safety, tolerability, and PK of HA121-28 was assessed in dose-escalation part. The single-patient accelerated titration was carried out at 25 mg and 50 mg; then, the dose escalation proceeded according to a “3 + 3” design in dose range of 100 to 800 mg. Escalation to a higher dose level was considered by the satisfactory review of safety results from the previous lower dose during the first cycle.
The dose-expansion part aims to further access the safety and efficacy of HA121-28 at the selected doses based on data from the dose-escalation part. The RP2D was determined by investigators in view of a thorough review of safety, PK, and efficacy results.
In phase 1 trial, during the dose-escalation part, patients first administered HA121-28 in a single ascending dose under the fasted state, then followed up for seven days. Then, patients received ascending doses of HA121-28 (q.d.) on a 21-day on and 7-day off treatment scheme for a 28-day cycle. For patients deemed beneficial from the treatment by investigators, treatment could remain until disease progression, or they discontinued from the study. In the dose-expansion part of phase 1, as well as phase 2, patients received HA121-28 (q.d.) at the selected doses on a 21-day on and 7-day off treatment scheme until disease progression, or they discontinued from the study.
Treatment-emergent adverse events (TEAEs) were documented during the entire study period. The predefined adverse event of special interest (AESI) was ≥ grade 3 prolonged QT interval. Tumor imaging was performed using contrast-enhanced computed tomography or magnetic resonance imaging at screening, Day 28 of the first cycle, then approximately every eight weeks till the end of the study for phase 1; in phase 2, imaging was scheduled at screening, and every eight weeks during the first 40 weeks, followed by every 12 weeks for the rest of the study period. RECIST 1.1 was used by the independent review committee or investigators for assessment of tumor response. After the original assessment, a repeated assessment was required around four weeks later to confirm a complete or partial response.
The primary endpoints of phase 1 were to investigate the MTD, dose-limiting toxicities, and the incidence and severity of TEAEs. Each TEAE was graded according to the Common Terminology Criteria for Adverse Events (CTCAE, version 5.0) and coded by Medical Dictionary for Regulatory Activities (MedDRA, version 21.0). The secondary endpoints included calculating PK parameters, assessing the ORR and DCR at the recommended dose by investigators as per RECIST 1.1. The exploratory endpoint was PFS.
If grade 2 or higher toxicity related to the study drug occurs in Groups 1 and 2 (as determined by the investigator), dose escalation will proceed using a 3+3 design starting from that dose level. If no DLT is observed at the 800 mg/d dose level after dose escalation, a meeting of investigators will be convened to decide whether to proceed with further dose escalation based on the available PK data, safety, and tolerability information.
5. Definition of DLT and MTD
The following events related to the study drug (including those that are definitely related, highly likely to be related, and possibly related):
(1) Grade 4 hematologic toxicity or grade 3 neutropenia accompanied by a fever of 38.5℃ or higher, or grade 3 thrombocytopenia accompanied by severe bleeding.
(2) Patients who discontinued the medication for more than 7 days due to unresolved toxicity reactions or who discontinued the medication more than twice due to toxicity […]
(3) In the context of supportive treatment, diarrhea of grade 2 lasting more than 7 days, or grade 3 diarrhea lasting more than 3 days.

Q: Which “incidence of ≥ grade-3 TEAEs” value (450 mg/day) does the source give for `COc1cc2c(Nc3ccc(Br)cc3F)ncnc2cc1OCCCCN(C)C.Cl.Cl` [HA121-28, N-(4-bromo-2-fluorophenyl)-7-(4-(dimethylamino)butoxy)-6-methoxy quinazolin-4-amine dihydrochloride] here?
A: Its value is 36.7%.

Q: And the “incidence of ≥ grade-3 TEAEs” value (600 mg/day)?
A: The value was 68.8%.

Q: What about the “patients with dose-limiting toxicities” value (800 mg (q.d.), grade-3 decreased appetite, grade-3 prolonged QT interval) of the same molecule?
A: The value was “two”.

Q: And the “Serious TEAE: ALT increased” value (Phase 1, 300 mg (N=4))?
A: Its value is 0 No. (%).

Q: What about the “Serious TEAE: AST increased” value (Phase 1, 300 mg (N=4)) of the same molecule?
A: Its value is 0 No. (%).

Q: And the “Serious TEAE: Abdominal Pain” value (Phase 1, 300 mg (N=4))?
A: Its value is 0 No. (%).

Q: And the “Serious TEAE: Abdominal distension” value (Phase 1, 300 mg (N=4))?
A: The value was 0 No. (%).

Q: What about the “Serious TEAE: Acute cholecystitis” value (Phase 1, 300 mg (N=4)) of the same molecule?
A: Its value is 0 No. (%).

Q: What about the “Serious TEAE: Acute pancreatitis” value (Phase 1, 300 mg (N=4)) of the same molecule?
A: The value was 0 No. (%).

Q: And the “Serious TEAE: Anal abscess” value (Phase 1, 300 mg (N=4))?
A: Its value is 0 No. (%).

Q: And the “Serious TEAE: Any” value (Phase 1, 300 mg (N=4))?
A: Its value is 1 (25.0) No. (%).

Q: And the “Serious TEAE: Aortic intramural hematoma” value (Phase 1, 300 mg (N=4))?
A: The value was 1 (25.0) No. (%).

Q: And the “Serious TEAE: Arrhythmia” value (Phase 1, 300 mg (N=4))?
A: Its value is 0 No. (%).

Q: What about the “Serious TEAE: Blood bilirubin increased” value (Phase 1, 300 mg (N=4)) of the same molecule?
A: Its value is 0 No. (%).

Q: What about the “Serious TEAE: Blood creatinine increased” value (Phase 1, 300 mg (N=4)) of the same molecule?
A: The value was 0 No. (%).

Q: What about the “Serious TEAE: COVID-19” value (Phase 1, 300 mg (N=4)) of the same molecule?
A: The value was 0 No. (%).

Q: What about the “Serious TEAE: Cardiac tamponade” value (Phase 1, 300 mg (N=4)) of the same molecule?
A: The value was 0 No. (%).

Q: What about the “Serious TEAE: Coronary artery atherosclerosis” value (Phase 1, 300 mg (N=4)) of the same molecule?
A: The value was 0 No. (%).

Q: And the “Serious TEAE: Death” value (Phase 1, 300 mg (N=4))?
A: The value was 0 No. (%).

Q: And the “Serious TEAE: Diarrhea” value (Phase 1, 300 mg (N=4))?
A: Its value is 0 No. (%).

Q: What about the “Serious TEAE: Drug eruption” value (Phase 1, 300 mg (N=4)) of the same molecule?
A: Its value is 0 No. (%).

Q: And the “Serious TEAE: Dyspnea” value (Phase 1, 300 mg (N=4))?
A: The value was 0 No. (%).

Q: What about the “Serious TEAE: Embolism” value (Phase 1, 300 mg (N=4)) of the same molecule?
A: The value was 0 No. (%).

Q: What about the “Serious TEAE: Erythema multiforme” value (Phase 1, 300 mg (N=4)) of the same molecule?
A: The value was 0 No. (%).

Q: And the “Serious TEAE: Headache” value (Phase 1, 300 mg (N=4))?
A: Its value is 0 No. (%).

Q: What about the “Serious TEAE: Hemoptysis” value (Phase 1, 300 mg (N=4)) of the same molecule?
A: The value was 0 No. (%).

Q: And the “Serious TEAE: Hydronephrosis” value (Phase 1, 300 mg (N=4))?
A: The value was 0 No. (%).

Q: What about the “Serious TEAE: Hypertension” value (Phase 1, 300 mg (N=4)) of the same molecule?
A: The value was 0 No. (%).

Q: What about the “Serious TEAE: Hypoalbuminemia” value (Phase 1, 300 mg (N=4)) of the same molecule?
A: The value was 0 No. (%).

Q: What about the “Serious TEAE: Intestinal obstruction” value (Phase 1, 300 mg (N=4)) of the same molecule?
A: Its value is 0 No. (%).

Q: And the “Serious TEAE: Intra-abdominal fluid collection” value (Phase 1, 300 mg (N=4))?
A: The value was 0 No. (%).

Q: And the “Serious TEAE: Intracranial tumor hemorrhage” value (Phase 1, 300 mg (N=4))?
A: Its value is 0 No. (%).

Q: What about the “Serious TEAE: Liver injury” value (Phase 1, 300 mg (N=4)) of the same molecule?
A: The value was 0 No. (%).

Q: What about the “Serious TEAE: Lung adenocarcinoma” value (Phase 1, 300 mg (N=4)) of the same molecule?
A: Its value is 0 No. (%).

Q: And the “Serious TEAE: Malignant neoplasm progression” value (Phase 1, 300 mg (N=4))?
A: The value was 0 No. (%).

Q: What about the “Serious TEAE: Multiple organ dysfunction syndrome” value (Phase 1, 300 mg (N=4)) of the same molecule?
A: The value was 0 No. (%).

Q: And the “Serious TEAE: Nausea” value (Phase 1, 300 mg (N=4))?
A: The value was 0 No. (%).

Q: What about the “Serious TEAE: Nephrolithiasis” value (Phase 1, 300 mg (N=4)) of the same molecule?
A: Its value is 0 No. (%).

Q: And the “Serious TEAE: Platelet counts decreased” value (Phase 1, 300 mg (N=4))?
A: Its value is 0 No. (%).

Q: And the “Serious TEAE: Pleural effusion” value (Phase 1, 300 mg (N=4))?
A: The value was 0 No. (%).

Q: And the “Serious TEAE: Pneumonia” value (Phase 1, 300 mg (N=4))?
A: The value was 0 No. (%).

Q: And the “Serious TEAE: Pneumonitis” value (Phase 1, 300 mg (N=4))?
A: The value was 0 No. (%).

Q: And the “Serious TEAE: Prolonged QT interval” value (Phase 1, 300 mg (N=4))?
A: Its value is 0 No. (%).

Q: And the “Serious TEAE: Pulmonary embolism” value (Phase 1, 300 mg (N=4))?
A: Its value is 0 No. (%).

Q: And the “Serious TEAE: Pyrexia” value (Phase 1, 300 mg (N=4))?
A: Its value is 0 No. (%).

Q: What about the “Serious TEAE: Rash” value (Phase 1, 300 mg (N=4)) of the same molecule?
A: The value was 0 No. (%).

Q: What about the “Serious TEAE: Rectal hemorrhage” value (Phase 1, 300 mg (N=4)) of the same molecule?
A: Its value is 0 No. (%).

Q: What about the “Serious TEAE: Respiratory failure” value (Phase 1, 300 mg (N=4)) of the same molecule?
A: The value was 0 No. (%).

Q: And the “Serious TEAE: Seizure” value (Phase 1, 300 mg (N=4))?
A: Its value is 0 No. (%).

Q: What about the “Serious TEAE: Septic shock” value (Phase 1, 300 mg (N=4)) of the same molecule?
A: Its value is 0 No. (%).

Q: And the “Serious TEAE: Sudden cardiac arrest” value (Phase 1, 300 mg (N=4))?
A: The value was 0 No. (%).

Q: And the “Serious TEAE: Sudden death” value (Phase 1, 300 mg (N=4))?
A: Its value is 0 No. (%).

Q: What about the “Serious TEAE: Upper respiratory tract infection” value (Phase 1, 300 mg (N=4)) of the same molecule?
A: Its value is 0 No. (%).

Q: What about the “Serious TEAE: Ventricular tachycardia” value (Phase 1, 300 mg (N=4)) of the same molecule?
A: Its value is 0 No. (%).

Q: What about the “Serious TEAE: Vomiting” value (Phase 1, 300 mg (N=4)) of the same molecule?
A: Its value is 0 No. (%).

Q: And the “Serious TEAE: Weight loss” value (Phase 1, 300 mg (N=4))?
A: Its value is 0 No. (%).

Q: What about the “Serious TRAE: ALT increased” value (Phase 1, 300 mg (N=4)) of the same molecule?
A: Its value is 0 No. (%).
